Test results reported in PMC10094921, “A Lipidated Single-B-Chain Derivative of Relaxin Exhibits Improved In Vitro Serum Stability without Altering Activity” (International Journal of Molecular Sciences, 2023).
No end group written: not given here.

Legend:
[1] = target: T1, 7BP protein (RXFP1 extracellular domain attached with a single TM domain) (Homo sapiens, UniProt Q9HBX9); test: Eu-H2 relaxin competition binding in HEK-7BP cells, BSA free; conditions: HEK-293T cells stably expressing 7BP, BSA excluded from buffer, mean ± SEM, n in brackets, one-site fit, read-out: HEK-7BP Binding B.S.A. Free Eu-H2 pKi (n) (converted)
T1 construct: RXFP1 extracellular domain attached with a single TM domain instead of the native 7 TM domain; single transmembrane domain replacing the native 7 TM domain (heterologous); expressed in transfected cells; host or cells: HEK-293T cells stably expressing 7BP (HEK-7BP)
T1 sequence (Q9HBX9 1-409 limits assumed): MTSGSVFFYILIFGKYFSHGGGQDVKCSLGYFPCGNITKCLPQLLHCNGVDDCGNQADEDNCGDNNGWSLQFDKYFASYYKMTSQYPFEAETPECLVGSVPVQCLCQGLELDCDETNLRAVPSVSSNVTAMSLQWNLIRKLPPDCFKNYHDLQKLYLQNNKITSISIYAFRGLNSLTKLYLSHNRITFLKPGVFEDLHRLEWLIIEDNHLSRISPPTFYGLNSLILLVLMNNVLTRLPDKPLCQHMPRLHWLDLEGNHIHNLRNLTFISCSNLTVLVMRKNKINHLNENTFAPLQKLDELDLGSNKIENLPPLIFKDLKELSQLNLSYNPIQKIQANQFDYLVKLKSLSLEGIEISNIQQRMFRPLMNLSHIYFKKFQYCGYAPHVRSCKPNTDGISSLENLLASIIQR
Protocol: 3.6. HEK-7BP Binding Assays
HEK-293T cells stably expressing the 7BP protein (HEK-7BP; RXFP1 extracellular domain attached with a single TM domain instead of the native 7 TM domain [30]) were plated in 96-well plates. The medium was aspirated off, and the cells were washed with phosphate-buffered saline (PBS) before competition binding assays were performed with Eu-H2 Relaxin (RXFP1 ligand), as previously described, with the only difference being that BSA was excluded from the binding assay buffer. Competition binding curves for each peptide were performed in triplicate, and each experiment was performed independently at least three times. Fluorescent measurements were carried out on a BMG POLARstar plate reader (BMG Labtech, Melbourne, Australia). Pooled data are presented as mean ± SE of specific binding and are fitted using a one-site binding curve in GraphPad Prism version 8 (GraphPad Inc., San Diego, CA, USA). Statistical analyses were conducted using a one-way analysis of variance with uncorrected Fisher’s least significant difference (LSD) post-hoc analysis in GraphPad Prism version 8.

[2] = In vitro serum stability assay; format: in vitro ADME, human; conditions: 37 °C
Protocol: 3.7. In Vitro Serum Stability Assay
A total of 400 µL of human serum was taken, and 200 µg peptide dissolved in 100 µL of water was added to human serum at 37 °C. A total of 80 µL of samples was removed at various time points (0 min, 30 min, 60 min, 120 min, 240 min, and 480 min), and 160 µL of acetonitrile was added to precipitate plasma proteins. The solution was then centrifuged at 12,000 rpm for 15 min at 4 °C. A total of 200 µL of supernatant was taken out and mixed with 240 µL of milli-Q water, and each sample was analyzed by RP-HPLC (2 × 80 μL injection), by measuring the area under the peak at the appropriate retention time compared to the peak area of the peptide at time zero minute (100%). Data analysis (n = 3, duplicate) was performed using Prism Version 8.0.2, a non-linear-fit one-phase decay model.

[3] = test system: BJ3 human dermal myofibroblasts; test: Myofibroblast differentiation in vitro (α-SMA expression, Western blot); format: cell-based
Protocol: 3.8. Determination of the Effects of Lipidated (L)-B7-33 on Myofibroblast Differentiation In Vitro
To determine if the lipidation of B7-33 prolonged its ability to suppress myofibroblast differentiation in vitro, the effects of the native B7-33 peptide vs. lipidated (L)-B7-33 were compared in BJ3 cells, a human dermal fibroblast cell line. BJ3 fibroblasts were used between passages 15–18 and cultured as described before. […] BJ3 cells were plated in 12-well plates at a density of 1–1.25 × 10^5 cells per well and were then either left untreated or stimulated with transforming growth factor (TGF)-β1 (T; 2 ng/mL) alone (to promote myofibroblast differentiation) or with T + B7-33 (100 ng/mL) or T + L-B7-33 (100 ng/mL) for a 14-day period, in media that was left unchanged over this time period. The cells from duplicate wells per treatment group were isolated from plates at 3-, 5-, 7-, 10- and 14-days post-T ± peptide treatment and extracted for protein using the RIPA lysis buffer (ThermoFisher Scientific; Scoresby, Victoria, Australia). These experiments were performed six independent times.
Half the cell protein (in 10 μL of RIPA buffer) from each sample (that was fully reconstituted in 20 μL of RIPA buffer) was loaded and electrophoresed in separate mini-protean 4–15% precast gels, and analyzed by Western blotting using a primary monoclonal antibody to α-SMA (42 kDa; M0851; […]; Agilent Technologies, Santa Clara, CA, USA). The equivalent loading of protein between samples was confirmed using a rabbit monoclonal glyceraldehyde 3-phosphate dehydrogenase (GAPDH) housekeeping antibody (37 kDa; 2118; 1:1000 dilution; Cell Signaling Technology; Danvers, MA, USA). Each membrane was then subjected to appropriate anti-mouse (7076) or anti-rabbit (7074) horseradish peroxidase-conjugated secondary antibodies (both at a 1:2000 dilution; Cell Signaling Technologies), before proteins were detected using the Clarity Western ECL substrate detection kit and quantified by densitometry with a ChemiDoc MP Imaging System and Image Lab v.6.0 software (both from Bio-Rad Laboratories, Hercules, CA, USA).The density of α-SMA from each sample was corrected for GAPDH protein levels and then expressed relative to the ratio that was measured from the unstimulated control group, which was expressed as 1 in each case. Representative blots of α-SMA and GAPDH were also chosen for presentation in each case.

[4] = test system: heart fibrosis, lung fibrosis; conditions: rat vs. mouse; cited from earlier work
Excerpt: (§1) The human gene-2 relaxin peptide (H2 relaxin) was discovered as a hormone of reproduction. The actions of H2 relaxin during pregnancy are pleiotropic, including strong antifibrotic, angiogenic, vasodilatory, antiapoptotic, and anti-inflammatory effects. These effects are mediated through the activation of the G protein-coupled receptor, Relaxin Family Peptide Receptor 1 (RXFP1), the native receptor for H2 relaxin [5]. However, H2 relaxin also has a high affinity for, and potency on, the related Relaxin Family Peptide Receptor 2 (RXFP2, a cognate receptor for INSL3 [6]) ...

[5] = test system: cyclic adenosine monophosphate (cAMP); conditions: in fibroblasts; cited from earlier work
Excerpt: as §1

pERK pathway = conditions: in fibroblasts; cited from earlier work
Excerpt: as §1

[6] = human serum 400 µL + 200 µg peptide in 100 µL water, samples 0-480 min, acetonitrile precipitation, RP-HPLC peak area vs time zero, one-phase decay fit, n = 3, duplicate

## CCCCCCCCCCCCCCCC(=O)NCCCC[C@H](NC(=O)[C@H](CCC(=O)O)NC(=O)[C@H](Cc1ccc(O)cc1)NC(=O)[C@@H](N)CCC(=O)O)C(=O)N[C@@H](CCC(=O)O)C(=O)N[C@@H](Cc1ccc(O)cc1)C(=O)N[C@@H](CCC(=O)O)C(=O)NCCOCCOCCOCCOCCOCCOCCC(=O)N[C@H](C(=O)N[C@H](C(=O)N[C@@H](CCCCN)C(=O)N[C@@H](CC(C)C)C(=O)N[C@@H](CO)C(=O)NCC(=O)N[C@@H](CCCNC(=N)N)C(=O)N[C@@H](CCC(=O)O)C(=O)N[C@@H](CC(C)C)C(=O)N[C@H](C(=O)N[C@@H](CCCNC(=N)N)C(=O)N[C@@H](C)C(=O)N[C@@H](CCC(N)=O)C(=O)N[C@H](C(=O)N[C@@H](C)C(=O)N[C@H](C(=O)N[C@@H](CO)C(=O)NCC(=O)N[C@@H](CCSC)C(=O)N[C@@H](CO)C(=O)N[C@H](C(=O)N[C@@H](Cc1c[nH]c2ccccc12)C(=O)N[C@@H](CO)C(=O)N[C@@H](CCCCN)C(=O)N[C@@H](CCCNC(=N)N)C(=O)N[C@@H](CO)C(=O)N[C@@H](CC(C)C)C(N)=O)[C@@H](C)O)[C@@H](C)CC)[C@@H](C)CC)C(C)C)[C@@H](C)CC)C(C)C [Tag-PEG6-B7-33]
[1]
  Ki: > 10 µM

## VIKLSGRELVRAQIAISGMSTWSKRSL-NH2 [Analogue B7-33]
[2]; [6]
  half-life at 400 µg/mL: ~6 min
  in vitro half-life in serum: 6 min
[2]; human serum, RP-HPLC, n = 3 independent experiments
  in vitro serum stability, in words: degrades within minutes
[3]; peptide 100 ng/mL + T 2 ng/mL, after 5–14 days of culture
  α-SMA expression levels versus T-alone-stimulated cells, in words: fully returned to those measured for T-alone-stimulated cells
[3]; peptide 100 ng/mL co-administered with T (2 ng/mL), after 72 h of culture, 0.5% FCS, n = 6 in duplicate
  suppression of TGF-α-induced increase in α-SMA expression: almost fully suppressed
[4]
  effect on fibrosis in animal models: reversed or resolved fibrosis
[5]
  cAMP activation: barely activate
pERK pathway
  pERK pathway activation potency: potency similar to H2 relaxin
